Measured values taken from patent US8946198B2, “Estrogen replacement regimen” (priority 2002, dated 2015).

Experiments:
[1] = molecular target: T1, human sex-hormone-binding globulin (SHBG) (Homo sapiens, UniProt P04278); details: cited from earlier work
T1 sequence (P04278 30-402): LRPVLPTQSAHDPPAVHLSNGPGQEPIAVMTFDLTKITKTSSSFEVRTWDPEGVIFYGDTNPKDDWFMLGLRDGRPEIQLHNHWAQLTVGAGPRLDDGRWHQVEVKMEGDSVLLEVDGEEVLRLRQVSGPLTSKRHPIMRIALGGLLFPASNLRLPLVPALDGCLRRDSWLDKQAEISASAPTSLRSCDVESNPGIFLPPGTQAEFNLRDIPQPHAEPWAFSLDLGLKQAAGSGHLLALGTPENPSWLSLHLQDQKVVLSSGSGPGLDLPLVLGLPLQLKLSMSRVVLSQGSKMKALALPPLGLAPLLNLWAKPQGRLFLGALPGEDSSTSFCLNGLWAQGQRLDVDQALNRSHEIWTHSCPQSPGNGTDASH

[2] = molecular target: T2, progesterone receptors (Homo sapiens, UniProt P06401); details: cited from earlier work
T2 sequence (P06401 1-933): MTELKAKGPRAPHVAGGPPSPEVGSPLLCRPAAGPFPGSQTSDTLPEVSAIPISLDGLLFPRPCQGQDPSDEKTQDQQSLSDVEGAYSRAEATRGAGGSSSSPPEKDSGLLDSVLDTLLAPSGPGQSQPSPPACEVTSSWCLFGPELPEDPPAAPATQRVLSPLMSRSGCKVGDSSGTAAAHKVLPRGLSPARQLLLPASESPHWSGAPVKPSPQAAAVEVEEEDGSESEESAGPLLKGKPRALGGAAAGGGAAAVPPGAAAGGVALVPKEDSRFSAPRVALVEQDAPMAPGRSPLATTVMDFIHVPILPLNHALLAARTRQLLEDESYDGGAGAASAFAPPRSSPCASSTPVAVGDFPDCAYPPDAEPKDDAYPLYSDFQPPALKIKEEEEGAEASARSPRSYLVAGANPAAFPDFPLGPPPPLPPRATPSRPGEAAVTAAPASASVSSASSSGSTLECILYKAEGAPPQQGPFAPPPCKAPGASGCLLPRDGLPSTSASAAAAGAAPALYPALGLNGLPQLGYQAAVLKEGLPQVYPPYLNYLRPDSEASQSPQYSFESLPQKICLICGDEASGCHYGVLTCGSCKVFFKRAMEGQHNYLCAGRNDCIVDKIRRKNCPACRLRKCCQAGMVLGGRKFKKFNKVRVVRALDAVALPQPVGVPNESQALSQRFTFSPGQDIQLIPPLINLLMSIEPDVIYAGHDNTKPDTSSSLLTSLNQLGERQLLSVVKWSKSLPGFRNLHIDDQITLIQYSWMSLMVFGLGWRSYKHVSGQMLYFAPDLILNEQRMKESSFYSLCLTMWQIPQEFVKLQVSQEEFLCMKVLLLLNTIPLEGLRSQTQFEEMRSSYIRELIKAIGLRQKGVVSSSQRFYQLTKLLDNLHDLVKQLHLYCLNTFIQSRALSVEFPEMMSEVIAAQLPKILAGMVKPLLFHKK

[3] = system: non-pregnant, oophorectomized ewes; experiment: Restoration of the uterine blood flow response after continuous infusion, second phase; type: in vivo, sheep; details: after continuous infusion 220 μg day 15-28
Protocol: In the second phase of the study an ultra-low dose of estrogen (0.01 μg/Kg) was administered to try to restore the response, which was most diminished in the first phase of the study by continuous infusion. The second phase of the study involved continuous infusion of 220 μg of estradiol from day 15 to 28 in another 15 sheep followed by randomization into 3 groups (See FIG. 1). […] UBF was measured throughout the study.

[4] = system: estrogen receptor (ER); details: ovariectomized non-pregnant sheep, myometrium and endometrium; cited from earlier work
[5] = system: non-pregnant, oophorectomized ewes; experiment: Uterine blood flow, MAP and heart rate during bolus vs continuous estradiol, first phase; type: in vivo, sheep
Protocol: In the study, fifteen non-pregnant, oophorectomized ewes were implanted with doppler flow probes (Transonic System, Ithaca, N.Y.) on the uterine artery and indwelling catheters were placed in the femoral artery and vein for mean arterial pressure (MAP) measurements and estrogen administration respectively. All animals were oophorectomized. MAP, heart rate (HR) and uterine blood flow (UBF) were recorded for 30 minutes daily for 14 days after at least 60 minutes of adaptation in the recording room. A baseline for each parameter of each sheep was established by averaging values obtained from day 8 through 14 after the last surgery. On day 14, sheep were divided randomly into three groups consisting of 5 animals each. […] The third group (Control) served as a vehicle control. Treatment groups received estrogen from day 15 through 28 and parameters were recorded daily throughout this period. […] It seems that none of the outcome parameters achieved a steady state during the study period.

[6] = continuous iv infusion 220 μg daily

Row | SMILES | affinity for SHBG [1] | binding to progesterone receptors [2] | UBF response to standard bolus doses after 2 days of ultra-low boluses ([3]; 0.01 μg/Kg bolus 2 days, then standard daily bolus (printed 1 μg/Kg) for 3 days (FIG. 4)) | UBF response to standard bolus doses after 2 days of standard boluses ([3]; 10 μg/Kg bolus 2 days, then 10 μg/Kg for 3 more days (FIG. 3)) | UBF response to standard bolus doses after 2 days of saline boluses ([3]; saline 2 days, then 10 μg/Kg bolus daily for 3 days (FIG. 2)) | effect on ER expression at physiologic concentrations [4] | effect on ER expression at supra-physiologic doses [4] | HR on the first day [5, 6] | HR on the second day [5, 6] | MAP decrease in the first two days [5, 6] | increase in UBF at two days of treatment [5, 6] | UBF for the next 12 days of the study ([5]; continuous iv infusion 220 μg daily, after day 2 of treatment) | MAP during the rest of the study ([5]; continuous iv infusion 220 μg daily, after the first two days) | UBF after 24 hours (before the next bolus) ([5]; daily single iv bolus 10 μg/kg) | daily intermittent increase in HR ([5]; daily single iv bolus 10 μg/kg) | effect on MAP (mean arterial pressure) ([5]; daily single iv bolus 10 μg/kg) | HR decrease to levels below the baseline after 24 hours ([5]; daily single iv bolus 10 μg/kg, 24 hours after bolus) | increase in UBF (uterine blood flow), start of gradual increase ([5]; daily single iv bolus 10 μg/kg, start of the gradual increase in the first 4 days, vs baseline)
1 | C#C[C@]1(OC(C)=O)CC[C@H]2[C@@H]3CCC4=CC(=NO)CC[C@@H]4[C@H]3CC[C@@]21CC (mixture of isomers) [norgestimate] | lack of affinity | bind to progesterone receptors |  |  |  |  |  |  |  |  |  |  |  |  |  |  |  | 
2 | C[C@]12CC[C@@H]3c4ccc(O)cc4CC[C@H]3[C@@H]1CC[C@@H]2O [17β-estradiol] |  |  | complete response | no response at all | partial response | promoted ER expression | inhibited ER expression | increased significantly | dropped to baseline levels | 8.6±4% | 1854.2±527.9% | returned almost to baseline levels | gradually increased to baseline levels | returned almost to baseline levels | 15-20% | did not affect MAP | 8-10% | 489±206.5%
3 | C#C[C@]1(O)CC[C@H]2[C@@H]3CCC4=CCCC[C@@H]4[C@H]3C(=C)C[C@@]21CC [desogestrel, 13-ethyl-11-methylene-18,19-dinor-17 alpha-pregn-4-en-20-yn-17-ol] | lack of affinity | bind to progesterone receptors |  |  |  |  |  |  |  |  |  |  |  |  |  |  |  | 
